Assay results published in paper PMC9501377, “New Diarylamine KV10.1 Inhibitors and Their Anticancer Potential” (Pharmaceutics, 2022).

target: T1, KV10.1 (Eag1) (Homo sapiens, UniProt O95259); assay: Whole-cell patch-clamp on stably transfected HEK-293 cells expressing KV10.1; format: cell-based; settings: 10 μM, HEK-293 cells, patch-clamp, mean ± SEM
T1 construct: expressed in transfected cells; host or cells: HEK-293 (stably transfected)
T1 sequence (O95259 1-962 isoform O95259-2): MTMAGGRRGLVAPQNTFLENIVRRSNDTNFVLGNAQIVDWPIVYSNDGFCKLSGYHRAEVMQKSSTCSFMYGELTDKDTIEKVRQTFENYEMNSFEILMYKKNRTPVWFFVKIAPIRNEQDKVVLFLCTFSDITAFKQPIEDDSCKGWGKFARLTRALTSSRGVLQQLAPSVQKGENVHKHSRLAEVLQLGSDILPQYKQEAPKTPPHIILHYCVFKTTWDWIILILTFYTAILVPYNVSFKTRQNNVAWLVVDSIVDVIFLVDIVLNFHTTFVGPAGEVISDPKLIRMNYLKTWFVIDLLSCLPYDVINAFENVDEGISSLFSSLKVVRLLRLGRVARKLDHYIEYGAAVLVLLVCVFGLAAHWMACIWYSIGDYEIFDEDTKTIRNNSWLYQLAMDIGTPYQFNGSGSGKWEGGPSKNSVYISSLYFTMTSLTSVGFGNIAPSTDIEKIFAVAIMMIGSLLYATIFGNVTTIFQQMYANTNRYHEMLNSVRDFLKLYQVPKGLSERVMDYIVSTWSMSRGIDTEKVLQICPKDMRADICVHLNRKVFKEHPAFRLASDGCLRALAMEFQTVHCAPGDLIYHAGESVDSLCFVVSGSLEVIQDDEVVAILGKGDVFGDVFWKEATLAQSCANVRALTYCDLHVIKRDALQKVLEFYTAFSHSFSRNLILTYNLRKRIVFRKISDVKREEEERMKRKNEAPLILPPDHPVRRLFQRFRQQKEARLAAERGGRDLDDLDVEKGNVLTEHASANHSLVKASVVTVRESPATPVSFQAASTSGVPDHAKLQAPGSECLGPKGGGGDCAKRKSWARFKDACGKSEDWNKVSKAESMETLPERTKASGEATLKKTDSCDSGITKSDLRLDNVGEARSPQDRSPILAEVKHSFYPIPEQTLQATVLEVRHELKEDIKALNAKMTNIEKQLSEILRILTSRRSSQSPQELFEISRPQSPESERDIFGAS
Experimental: For whole-cell patch-clamp measurements, stably transfected HEK-293 cells expressing KV10.1 [26, 27, 28] were grown in DMEM with 10% FCS and 300 µg/mL Zeocin on glass coverslips coated with fibronectin. All experiments were conducted at room temperature under perfusion by gravity with extracellular solution (160 mM NaCl, 2.5 mM KCl, 2 mM CaCl2, 1 mM MgCl2, 10 mM Hepes pH 7.4 with NaOH, 8 mM glucose). Pipettes were made from #1 glass capillaries (WPI) and had 1–3 MΩ resistance. The intracellular solution contained 100 mM KCl, 45 mM N-methyl-D-glucamine, 10 mM 1,2-bis(o-aminophenoxy)ethane-N,N,N′,N′-tetraacetic acid (BAPTA), 10 mM Hepes pH 7.35. Stimulation was applied and data were acquired with an EPC10 Plus amplifier (HEKA Elektronik) controlled with Patch Master software. Compounds were applied with an 8-channel fast solution exchanger (ALA). Compounds were prepared to a stock concentration of 10 mM in DMSO. The control solution contained 0.5% DMSO. Stimuli consisted of 500 ms depolarizations to +40 mV.
All electrophysiological data are presented as means ± SEM of n ≥ 3 independent experiments unless otherwise indicated. Oocyte data were analysed using pClamp Clampfit 10.4 (Molecular Devices, Downingtown, PA, USA) and OriginPro 9 (Originlab, Northampton, MA, USA) or GraphPad Prism 8 software (GraphPad Software, Inc., San Diego, CA, USA). Patch-clamp data analysis was performed using FitMaster (HEKA Electronics), IgorPro (Wavemetrics, Inc., Lake Oswego, OR, USA) and GraphPad Prism 9 (GraphPad Software, Inc., San Diego, CA, USA). The Dunnett test and one-way ANOVA were performed to calculate the significance of the induced inhibition compared to the control (p < 0.05).

SMILES | % of Kv10.1 Inhibition at 10 μM (HEK-293 Cells)
O=[N+]([O-])c1cc(C(F)(F)F)ccc1Nc1ccc(OCc2ccccc2)cc1 [Compound 14, N-(4-(Benzyloxy)phenyl)-2-nitro-4-(trifluoromethyl)aniline] | inactive

same assay, conditions: HEK293; 1 μM, HEK-293 cells, patch-clamp, mean ± SEM

SMILES | inhibition at 1 µM
CCN(CC)CCOc1c(Br)cc(Nc2ccc(C(F)(F)F)cc2[N+](=O)[O-])cc1Br [Compound 17b, 3,5-Dibromo-4-(2-(diethylamino)ethoxy)-N-(2-nitro-4-(trifluoromethyl)phenyl)aniline] | 38.2 ± 1.4%

same assay, conditions: HEK293; 10 μM, HEK-293 cells, patch-clamp, mean ± SEM

SMILES | inhibition at 10 µM
COC(=O)c1ccccc1Oc1ccc(OCC(O)CN2CCOCC2)cc1 (centres unmarked) [Compound 5a, Methyl 2-(4-(2-hydroxy-3-morpholinopropoxy)phenoxy)benzoate] | 4.1 ± 2.6%
O=[N+]([O-])c1cc(C(F)(F)F)ccc1Oc1ccc(OCC(O)CN2CCOCC2)cc1 (centres unmarked) [Compound 5b, 1-Morpholino-3-(4-(2-nitro-4-(trifluoromethyl)phenoxy)phenoxy)propan-2-ol] | 2.9 ± 5.3%
O=C(Nc1ccc(OCC(O)CN2CCOCC2)cc1)c1ccc(C(F)(F)F)cc1[N+](=O)[O-] (centres unmarked) [Compound 5c, N-(4-(2-Hydroxy-3-morpholinopropoxy)phenyl)-2-nitro-4-(trifluoromethyl)benzamide] | 7.5 ± 3.5%
COC(=O)c1ccccc1Nc1ccc(OCC(O)CN2CCOCC2)cc1 (centres unmarked) [Compound 5d, Methyl 2-((4-(2-hydroxy-3-morpholinopropoxy)phenyl)amino)benzoate] | 2.7 ± 1.2%
O=[N+]([O-])c1ccc(Nc2ccc(OCC(O)CN3CCOCC3)cc2)c([N+](=O)[O-])c1 (centres unmarked) [Compound 5f, 1-(4-((2,4-Dinitrophenyl)amino)phenoxy)-3-morpholinopropan-2-ol] | 61.7 ± 9.1%
CN(C)CC(O)COc1ccc(Oc2ccc(C(F)(F)F)cc2[N+](=O)[O-])cc1 (centres unmarked) [Compound 6a, 1-(Dimethylamino)-3-(4-(2-nitro-4-(trifluoromethyl)phenoxy)phenoxy)propan-2-ol] | 18.8 ± 4%
CN(C)CC(O)COc1ccc(NC(=O)c2ccc(C(F)(F)F)cc2[N+](=O)[O-])cc1 (centres unmarked) [Compound 6b, N-(4-(3-(Dimethylamino)-2-hydroxypropoxy)phenyl)-2-nitro-4-(trifluoromethyl)benzamide] | 1.7 ± 6%
COC(=O)c1cc(C(F)(F)F)ccc1Nc1ccc(OCC(O)CN(C)C)cc1 (centres unmarked) [Compound 6c, Methyl 2-((4-(3-(dimethylamino)-2-hydroxypropoxy)phenyl)amino)-5-(trifluoromethyl)benzoate] | 4.2 ± 5.5%
CN(C)CC(O)COc1ccc(Nc2ccc([N+](=O)[O-])cc2[N+](=O)[O-])cc1 (centres unmarked) [Compound 6d, 1-(Dimethylamino)-3-(4-((2,4-dinitrophenyl)amino)phenoxy)propan-2-ol] | 61.9 ± 9%
O=C(O)c1ccccc1Nc1ccc(OCC(O)CN2CCOCC2)cc1 (centres unmarked) [Compound 10a, 2-((4-(2-Hydroxy-3-morpholinopropoxy)phenyl)amino)benzoic acid] | 5.8 ± 5.3%
CN(C)CC(O)COc1ccc(Nc2ccc(C(F)(F)F)cc2C(=O)O)cc1 (centres unmarked) [Compound 10b, 2-((4-(3-(Dimethylamino)-2-hydroxypropoxy)phenyl)amino)-5-(trifluoromethyl)benzoic acid] | -2.1 ± 5.7%
O=[N+]([O-])c1cc(C(F)(F)F)ccc1Nc1ccc(OCCN2CCOCC2)cc1 [Compound 13, N-(4-(2-Morpholinoethoxy)phenyl)-2-nitro-4-(trifluoromethyl)aniline] | 62.4 ± 3.9%
O=[N+]([O-])c1cc(C(F)(F)F)ccc1Nc1ccc(OCc2ccccc2)cc1 [Compound 14, N-(4-(Benzyloxy)phenyl)-2-nitro-4-(trifluoromethyl)aniline] | 3.3 ± 1.7%
CNCC(O)COc1ccc(Nc2ccc(C(F)(F)F)cc2[N+](=O)[O-])cc1 (centres unmarked) [Compound 15, 1-(Methylamino)-3-(4-((2-nitro-4-(trifluoromethyl)phenyl)amino)phenoxy)propan-2-ol] | 66.6 ± 4.3%

same assay, conditions: HEK293; 50 μM, HEK-293 cells, patch-clamp, mean ± SEM

SMILES | inhibition at 50 µM
O=C(Cc1ccc(Cl)c(Cl)c1)NC1CCN(CC(O)COc2ccc(Nc3ccc(C(F)(F)F)cc3[N+](=O)[O-])cc2)CC1 (centres unmarked) [Compound 16d, 2-(3,4-Dichlorophenyl)-N-(1-(2-hydroxy-3-(4-((2-nitro-4-(trifluoromethyl)phenyl)amino)phenoxy)propyl)piperidin-4-yl)acetamide] | 21.8 ± 4.4%
